Data as given in patent publication US20220073536A1 (Rigel Pharmaceuticals, Inc., priority 2003, published 2022).
Structures can show the parent of a compound that is named as a salt.

System: cultured human mast cells (CHMC)
Assay: CHMC low cell density IgE activation: tryptase assay
Format: cell-based
Conditions: Homo sapiens, Mast cell, low cell density CHMC, IgE activation, tryptase readout, 3 pt; read-out: LD Tryptase, CHMC, IgE, 3 pt
How it was run: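 Fluorogenic readout of tryptase released into the supernatant (30 min substrate incubation, room temperature) measures degranulation. Cells were plated at low density (1000–1500/well, varied by donor) and triggered with anti-IgE for 30 min at 37 °C.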

Row | IC50 [µM] | SMILES
1 | < 10 | COc1cccc(Nc2ncc(F)c(Nc3ccc4c(c3)NC(=O)C(C)(C)O4)n2)c1C [Compound 1062, N4-(2,2-Dimethyl-3-oxo-4H-benz[1,4]oxazin-6-yl)-5-fluoro-N2-(3-methoxy-2-methylphenyl)-2,4-pyrimidinediamine]

Same assay, conditions: Homo sapiens, Mast cell, low cell density CHMC, IgE activation, tryptase readout, 8 pt; read-out: LD Tryptase, CHMC, IgE, 8 pt

Row | IC50 [µM] | SMILES
2 | < 10 | Cc1c(O)cccc1Nc1ncc(F)c(Nc2ccc3c(c2)NC(=O)C(C)(C)O3)n1 [Compound 1060, N4-(2,2-Dimethyl-3-oxo-4H-benz[1,4]oxazin-6-yl)-5-fluoro-N2-(3-hydroxy-2-methylphenyl)-2,4-pyrimidinediamine]

Same assay, conditions: Homo sapiens, Mast cell, low cell density, IgE activation, 3 pt; read-out: LD Tryptase, CHMC, IgE, 3 pt

Row | IC50 [µM] | SMILES
3 | < 10 | CCN(CC)Cc1nc2cc(Nc3ncc(F)c(Nc4ccc5c(c4)NC(=O)C(C)(C)O5)n3)ccc2n1C [Compound 972]
4 | < 10 | CCN(CC)Cc1nc2cc(Nc3ncc(F)c(Nc4ccc5c(c4)NC(=O)[C@H](C)O5)n3)ccc2n1C [Compound 973]

Same assay, conditions: Homo sapiens, Mast cell, low cell density, IgE activation, 8 pt; read-out: LD Tryptase, CHMC, IgE, 8 pt

Row | IC50 [µM] | SMILES
5 | < 10 | CCN(CC)Cc1nc2cc(Nc3ncc(F)c(Nc4ccc5c(c4)NC(=O)C(C)(C)O5)n3)ccc2n1C [Compound 972]
6 | < 10 | CCN(CC)Cc1nc2cc(Nc3ncc(F)c(Nc4ccc5c(c4)NC(=O)[C@H](C)O5)n3)ccc2n1C [Compound 973]
7 | < 10 | CC1(C)Oc2ccc(Nc3nc(Nc4ccc5[nH]c(N6CCOCC6)nc5c4)ncc3F)cc2NC1=O [Compound 976, N4-(2,2-Dimethyl-3-oxo-4H-benz[1,4]oxazin-6-yl)-5-fluoro-N2-[2-(4-morpholino)-1H-benzimidazol-5-yl]-2,4-pyrimidinediamine]
8 | < 10 | CC1(C)Oc2ccc(Nc3nc(Nc4ccc5[nH]c(N6CCOCC6)nc5c4)ncc3F)nc2NC1=O [Compound 977, N4-(2,2-Dimethyl-3-oxo-4H-5-pyrido[1,4]oxazin-6-yl)-5-fluoro-N2-[2-(4-morpholino)-1H-benzimidazol-5-yl]-2,4-pyrimidinediamine]

Same assay, conditions: Homo sapiens, Mast cell, read-out: LD Tryptase, CHMC, IgE, 3 pt

Row | SMILES | IC50 [µM]
9 | CNC(=O)COc1cccc(Nc2ncc(F)c(Nc3ccc4c(n3)NC(=O)C(C)(C)O4)n2)c1 [Compound 984, N4-(2,2-Dimethyl-3-oxo-4H-5-pyrid[1,4]oxazin-6-yl)-5-fluoro-N2-[3-(N-methylamino)carbonylmethyleneoxyphenyl]-2,4-pyrimidinediamine Benzensulfonic Acid Salt] | < 10

Same assay, conditions: Homo sapiens, Mast cell, read-out: LD Tryptase, CHMC, IgE, 8 pt

Row | SMILES | IC50 [µM]
10 | CNC(=O)COc1cccc(Nc2ncc(F)c(Nc3ccc4c(n3)NC(=O)C(C)(C)O4)n2)c1 [Compound 984, N4-(2,2-Dimethyl-3-oxo-4H-5-pyrid[1,4]oxazin-6-yl)-5-fluoro-N2-[3-(N-methylamino)carbonylmethyleneoxyphenyl]-2,4-pyrimidinediamine Benzensulfonic Acid Salt] | < 10

Same assay, conditions: low cell density CHMC, IgE activation, tryptase readout, 3 pt; read-out: LD Tryptase, CHMC, IgE, 3 pt

Row | IC50 [µM] | SMILES
11 | < 10 | COc1cccc(Nc2ncc(F)c(Nc3ccc4c(n3)NC(=O)C(C)(C)O4)n2)c1C [Compound 1065, N4-(2,2-Dimethyl-3-oxo-4H-5-pyrid[1,4]oxazin-6-yl)-5-fluoro-N2-(3-methoxy-2-methylphenyl)-2,4-pyrimidinediamine]
12 | < 10 | COC(=O)COc1cccc(Nc2ncc(F)c(Nc3ccc4c(c3)NC(=O)C(C)(C)O4)n2)c1C [Compound 1066, N4-(2,2-Dimethyl-3-oxo-4H-benz[1,4]oxazin-6-yl)-5-fluoro-N2-[3-methoxycarbonylmethyleneoxy-2-methylphenyl]-2,4-pyrimidinediamine]

Same assay, conditions: low cell density CHMC, IgE activation, tryptase readout, 8 pt; read-out: LD Tryptase, CHMC, IgE, 8 pt

Row | SMILES | IC50 [µM]
13 | CC1(C)Oc2ccc(Nc3nc(Nc4ccc(-c5ncco5)cc4)ncc3F)nc2NC1=O [Compound 1035, N4-(2,2-Dimethyl-3-oxo-4H-5-pyrid[1,4]oxazin-6-yl)-5-fluoro-N2-[4-(oxazol-2-yl)phenyl]-2,4-pyrimidinediamine] | > 10
14 | Cc1c(O)cccc1Nc1ncc(F)c(Nc2ccc3c(n2)NC(=O)CO3)n1 [Compound 1063, 5-Fluoro-N2-(3-hydroxy-2-methylphenyl)-N4-(3-oxo-2H,4H-5-pyrid[1,4]oxazin-6-yl)-2,4-pyrimidinediamine] | < 10
15 | CNC(=O)COc1cccc(Nc2ncc(F)c(Nc3ccc4c(c3)NC(=O)C(C)(C)O4)n2)c1C [Compound 1067, N4-(2,2-Dimethyl-3-oxo-4H-benz[1,4]oxazin-6-yl)-5-fluoro-N2-[2-methyl-3-(N-methylamino)carbonylmethyleneoxyphenyl]-2,4-pyrimidinediamine] | < 10
16 | CNC(=O)COc1cccc(Nc2ncc(F)c(Nc3ccc4c(n3)NC(=O)CO4)n2)c1C [Compound 1068, 5-Fluoro-N2-[2-methyl-3-(N-methylamino)carbonylmethyleneoxyphenyl]-N4-(3-oxo-2H,4H-5-pyrid[1,4]oxazin-6-yl)-2,4-pyrimidinediamine] | < 10
17 | CCOC(=O)N1CCN(c2cccc(Nc3ncc(F)c(Nc4ccc5c(n4)NC(=O)CO5)n3)c2)CC1 [Compound 1070, N2-[3-(4-Ethoxycarbonylpiperazino)phenyl]-5-fluoro-N4-(3-oxo-2H,4H-5-pyrid[1,4]oxazin-6-yl)-2,4-pyrimidinediamine] | < 10
18 | CC(=O)N1CCN(c2cccc(Nc3ncc(F)c(Nc4ccc5c(n4)NC(=O)CO5)n3)c2)CC1 [Compound 1071, N2-[3-(4-Acetylpiperazino)phenyl]-5-fluoro-N4-(3-oxo-2H,4H-5-pyrid[1,4]oxazin-6-yl)-2,4-pyrimidinediamine] | < 10
19 | CCOC(=O)N1CCN(c2ccc(Nc3ncc(F)c(Nc4ccc5c(n4)NC(=O)CO5)n3)cc2)CC1 [Compound 1072, N2-[4-(4-Ethoxycarbonylpiperazino)phenyl]-5-fluoro-N4-(3-oxo-2H,4H-5-pyrid[1,4]oxazin-6-yl)-2,4-pyrimidinediamine] | < 10
20 | O=C1COc2ccc(Nc3nc(Nc4cccc(N5CCOCC5)c4)ncc3F)nc2N1 [Compound 1073, 5-Fluoro-N2-(3-morpholinophenyl)-N4-(3-oxo-2H,4H-5-pyrid[1,4]oxazin-6-yl)-2,4-pyrimidinediamine] | < 10
21 | CN1CCN(c2cccc(Nc3ncc(F)c(Nc4ccc5c(n4)NC(=O)CO5)n3)c2)CC1 [Compound 1074, 5-Fluoro-N2-[3-(4-methylpiperazino)phenyl]-N4-(3-oxo-2H,4H-5-pyrid[1,4]oxazin-6-yl)-2,4-pyrimidinediamine] | < 10

The next lines start with the values.

Row | IC50 [µM] | SMILES
22 | < 10 | COc1c(C)cc(Nc2ncc(F)c(Nc3ccc4c(n3)NC(=O)CO4)n2)cc1C [Compound 1059, N2-(3,5-Dimethyl-4-methoxyphenyl)-5-fluoro-N4-(3-oxo-2H,4H-5-pyrid[1,4]oxazin-6-yl)-2,4-pyrimidinediamine]
23 | < 10 | COc1cccc(Nc2ncc(F)c(Nc3ccc4c(n3)NC(=O)CO4)n2)c1C [Compound 1061, 5-Fluoro-N2-(3-methoxy-2-methylphenyl)-N4-(3-oxo-2H,4H-5-pyrid[1,4]oxazin-6-yl)-2,4-pyrimidinediamine]
24 | < 10 | Cc1c(O)cccc1Nc1ncc(F)c(Nc2ccc3c(n2)NC(=O)C(C)(C)O3)n1 [Compound 1064, N4-(2,2-Dimethyl-3-oxo-4H-5-pyrid[1,4]oxazin-6-yl)-5-fluoro-N2-(3-hydroxy-2-methylphenyl)-2,4-pyrimidinediamine]
25 | < 10 | Cc1cc(Nc2ncc(F)c(Nc3ccc4c(n3)NC(=O)CO4)n2)cc(C)c1O [Compound 1069, N2-(3,5-Dimethyl-4-hydroxyphenyl)-5-fluoro-N4-(3-oxo-2H,4H-5-pyrid[1,4]oxazin-6-yl)-2,4-pyrimidinediamine]
26 | < 10 | CCOC(=O)N1CCN(c2cccc(Nc3ncc(F)c(Nc4ccc5c(n4)NC(=O)C(C)(C)O5)n3)c2)CC1 [Compound 1075, N4-(2,2-Dimethyl-3-oxo-4H-5-pyrid[1,4]oxazin-6-yl)-N2-[3-(4-ethoxycarbonylpiperazino)phenyl]-5-fluoro-2,4-pyrimidinediamine]

Same assay, conditions: low cell density, IgE activation, 3 pt; read-out: LD Tryptase, CHMC, IgE, 3 pt

Row | IC50 [µM] | SMILES
27 | < 10 | CCN(CC)Cc1nc2cc(Nc3ncc(F)c(Nc4ccc5c(n4)NC(=O)C(C)(C)O5)n3)ccc2n1C [Compound 974, N2-[2-(N,N-Diethylaminomethyl)-1-methylbenzimidazol-5-yl]-N4-(2,2-dimethyl-3-oxo-4H-5-pyrido[1,4]oxazin-6-yl)-5-fluoro-2,4-pyrimidinediamine]
28 | < 10 | CC(C)c1cccc(Nc2ncc(F)c(Nc3ccc4c(n3)NC(=O)C(C)(C)O4)n2)c1 [Compound 1003, N4-(2,2-Dimethyl-3-oxo-4H-5-pyrid[1,4]oxazin-6-yl)-5-fluoro-N2-(3-isopropylphenyl)-2,4-pyrimidinediamine]

Row | SMILES | IC50 [µM]
29 | CNC(=O)COc1cccc(Nc2ncc(F)c(Nc3ccc4c(n3)NC(=O)C(C)(C)O4)n2)c1 [Compound 986, N4-(2,2-Dimethyl-3-oxo-4H-5-pyrid[1,4]oxazin-6-yl)-5-fluoro-N2-[3-(N-methylamino)carbonylmethyleneoxyphenyl]-2,4-pyrimidinediamine Hydrogen Chloride Salt] | < 10

Same assay, conditions: low cell density, IgE activation, 8 pt; read-out: LD Tryptase, CHMC, IgE, 8 pt

Row | SMILES | IC50 [µM]
30 | CCN(CC)Cc1nc2cc(Nc3ncc(F)c(Nc4ccc5c(n4)NC(=O)C(C)(C)O5)n3)ccc2n1C [Compound 974, N2-[2-(N,N-Diethylaminomethyl)-1-methylbenzimidazol-5-yl]-N4-(2,2-dimethyl-3-oxo-4H-5-pyrido[1,4]oxazin-6-yl)-5-fluoro-2,4-pyrimidinediamine] | < 10
31 | CNC(=O)COc1cccc(Nc2ncc(F)c(Nc3ccc4c(n3)NC(=O)C(C)(C)O4)n2)c1 [Compound 986, N4-(2,2-Dimethyl-3-oxo-4H-5-pyrid[1,4]oxazin-6-yl)-5-fluoro-N2-[3-(N-methylamino)carbonylmethyleneoxyphenyl]-2,4-pyrimidinediamine Hydrogen Chloride Salt] | < 10
32 | CNC(=O)COc1cccc(Nc2ncc(F)c(Nc3ccc4c(c3)NCC(C)(C)O4)n2)c1 [Compound 1000, N4-(3,4-Dihydro-2,2-dimethyl-4H-benz[1,4]oxazin-6-yl)-5-fluoro-N2-[3-(N-methylamino)carbonylmethyleneoxyphenyl]-2,4-pyrimidinediamine] | < 10
33 | COc1c(C)cc(Nc2ncc(F)c(Nc3ccc4c(c3)NCC(C)(C)O4)n2)cc1Cl [Compound 1001, N2-(3-Chloro-4-methoxy-5-methylphenyl)-N4-(3,4-dihydro-2,2-dimethyl-4H-benz[1,4]oxazin-6-yl)-5-fluoro-2,4-pyrimidinediamine] | < 10
34 | COc1cc(Nc2ncc(F)c(Nc3ccc4c(c3)NCC(C)(C)O4)n2)cc(OC)c1 [Compound 1002, N4-(3,4-Dihydro-2,2-dimethyl-4H-benz[1,4]oxazin-6-yl)-N2-(3,5-dimethoxyphenyl)-5-fluoro-2,4-pyrimidinediamine] | < 10

Further lines, results first:

Row | IC50 [µM] | SMILES
35 | < 10 | COc1ccc(Nc2nc(Nc3ccc4[nH]c(N5CCOCC5)nc4c3)ncc2F)cc1Cl [Compound 978, N4-(3-Chloro-4-methoxyphenyl)-5-fluoro-N2-[2-(4-morpholino)-1H-benzimidazol-5-yl]-2,4-pyrimidinediamine]
36 | < 10 | CC(C)c1cccc(Nc2ncc(F)c(Nc3ccc4c(n3)NC(=O)C(C)(C)O4)n2)c1 [Compound 1003, N4-(2,2-Dimethyl-3-oxo-4H-5-pyrid[1,4]oxazin-6-yl)-5-fluoro-N2-(3-isopropylphenyl)-2,4-pyrimidinediamine]
